Patent US20210102215A1, “TREATMENT AND PREVENTION OF VIRAL INFECTION” (priority 2016, published 2021)
d = 2'-deoxy (DNA); r = 2'-OH (RNA)

What was measured:
HCV infected Huh-7 cells = assay: Viral RNA load in chronic HCV infected cells by qPCR; format: cell-based, hepatitis C virus; conditions: increasing dose, 24 hours, qPCR (FIG. 5a)
Experimental: To assess the ability of REV-ERB activators to limit HCV RNA replication, HCV infected Huh-7 cells (verified by NSSA staining) were treated with GSK4112 or SR9009 at a range of doses. […], HCV infection levels were quantified by reverse transcriptase polymerase chain measurement of viral RNA (see FIG. 4b).
Huh-7 cells were treated with either REV-ERBα agonist GSK4112 or SR9009 for 16 hour at a range of doses. Medium containing the drug was then removed following viral inoculation and infectivity assessed 24 hours later. To evaluate the efficacy of these drugs in viral replication, chronic infected HCV or HBV cells were treated with REV-ERBα activators at a range of concentrations and viral load determined by real-time qPCR 24 hours later.
(§1) The ability of REV-ERBα activators to reduce viral burden of chronic HCV infected cells was then tested. […] An identical assay was performed in two chronic HBV infected cell lines—2215 and AD38.
HCVcc SA13/JFH-1 infected Huh-7 cells were also treated with increasing concentrations of GSK2667 for 24 h and viral RNA levels measured after 24 h.

[1] = tested on: pseudoparticles expressing viral glycoproteins (HCV, VSV, Lassa, Flu, MLC, Ebola); format: cell-based
Bmal1 mRNA = Bmal1 mRNA levels by qPCR in hepatocytes / Huh-7 cells; conditions: qPCR (FIG. 3a)
HCV sub-genomic replicon = assay: HCV genome replication in a synthetic sub-genomic replicon line; conditions: dose-dependent (FIG. 4a)
HIV virus (NL4.3) = assay: HIV (NL4.3) infection of TZM-bl cells, HIV promoter luciferase assay; conditions: for HIV infection (HIV promoter activity): increasing dose, 24 h (FIGS. 11a, 11b)
Bna1 promoter = conditions: cited from earlier work
HCVpp = format: cell-based, hepatitis C virus; conditions: cells treated with Rev-erbα agonists (FIG. 3c, 3d)
[2] = tested on: chronic HBV infected cell lines 2215 and AD38; assay: HBV RNA levels in chronic HBV infected cell lines; format: cell-based, hepatitis B virus; conditions: 2215 and AD38 cells, 48 hours (FIG. 5c)
Experimental: Huh-7 cells were treated with either REV-ERBα agonist GSK4112 or SR9009 for 16 hour at a range of doses. Medium containing the drug was then removed following viral inoculation and infectivity assessed 24 hours later.
as §1

Zika virus = conditions: Huh-7, infectivity after 24 h and 48 h (FIG. 12)
[3] = tested on: HCV genotype 3a S52 replicon; conditions: REV-ERB agonists 20 μM with increasing DAA, 48 h (FIGS. 10f, 10g)
[4] = tested on: HCV sub-genomic replicons genotypes 1b, 2a, 3a; assay: HCV sub-genomic luciferase replicons genotypes 1-3 in Huh-7.5-SEC14L2 cells; conditions: genotypes 1-3 replicons, increasing concentrations, 24 h (FIGS. 10c-e)

Row | Compound | Viral load (HCV genomic RNA) (HCV infected Huh-7 cells) | Bmal1 mRNA levels (Bmal1 mRNA) | Replication of the HCV genome (HCV sub-genomic replicon) | HIV infection (HIV promoter activity) (HIV virus (NL4.3)) | Effect on the anti-viral activity (HCV entry) of REV-ERBα agonists GSK4112/SR9009 (HCVpp) | Combined effect of REV-ERB agonist and DAA on HCV genotype 3 replication [3] | other results
1 | CC(C)(C)OC(=O)CN(Cc1ccc(Cl)cc1)Cc1ccc([N+](=O)[O-])s1 [GSK4112] | dose-dependent reduction in viral load | decreased Bmal1 mRNA levels | inhibited | inhibit HIV infection |  |  | Entry of pseudoparticles of multiple viruses [1]: inhibitory effect on entry was replicated across multiple viruses including lassa and ebola
2 | CS(=O)(=O)N(Cc1ccco1)CC(O)Cn1c2ccccc2c2ccccc21 (stereo not shown) [KL001] |  |  |  |  |  |  | Bmal1 promoter activity (Bna1 promoter): inhibit Bna1 promoter activity
3 | CCOC(=O)C1Cc2ccccc2CN1C(=O)c1ccc(SC)s1 (stereo not shown) [SR8278] |  |  |  | promotes HIV infection | rescued |  | 
4 | CCOC(=O)N1CCC(CN(Cc2ccc(Cl)cc2)Cc2ccc([N+](=O)[O-])s2)C1 (stereo not shown) [SR9009] | dose-dependent reduction in viral load | decreased Bmal1 mRNA levels | inhibited | inhibit HIV infection |  | additive effects | HBV RNA levels [2]: significantly reduced HBV RNA levels; Zika infection (Zika virus): inhibit Zika infection; Antiviral activity against HCV RNA replication across genotypes [4]: pan-genomic
5 | CC(C)OC(=O)[C@H](C)N[P@](=O)(OC[C@H]1O[C@@H](n2ccc(=O)[nH]c2=O)[C@](C)(F)[C@@H]1O)Oc1ccccc1 [Sofosbuvir] |  |  |  |  |  | additive effects | 
6 | Rev-erbα siRNA: rev-erba siRNA duplex from Life technologies, SEQ ID NO 5 and 6, two-base DNA overhang (chain 1 GGUGUCUGAAGAAUGAGAATT; chain 2 UUCUCAUUCUUCAGACACCTT; sugars from the 5' end r19 d2, backbone and methylation of C not given here) |  |  |  |  | rescued |  | HIV promoter activity after siRNA knockdown (HIV virus (NL4.3); 48 h post-siRNA, HIV 24 h (FIG. 11c)): increased HIV promoter activity
